Source: patent publication US20240034785A1, “RXR-ALPHA BINDERS AND RXR-ALPHA/PLK1 MODULATORS” (NUCMITO PHARMACEUTICALS CO. LTD., priority 2020, published 2024)
Positions count from the first letter of the chain named. Numbers in names are those of the source. One block for each molecule: values may come before it.

Experiments:
cancer cells = assay: Mitotic progression of cancer cells (FACS analysis); type: cell-based
Procedure: Cells were harvested by trypsin digestion, washed with PBS, and fixed with ice-cold 70% ethanol overnight at 4° C. The fixed cells were then washed twice in PBS and treated for 10 min at room temperature with 0.5 μg/mL 4-6-diamidino-2-phenylindole (DAPI) in PBS and analyzed on a FACSCAN™ flow cytometer. Flow cytometry data were analyzed using CYTEXPERT.

RXRα shift = assay: Western blot of RXRα mobility shift (phosphorylation) in mitotic HeLa cells treated with inhibitors; type: cell-based, human; details: for RXRα shift (mobility shift on SDS-PAGE, WB): mitotic HeLa cells released from TT block, inhibitors for 15 min (FIG. 16)
Procedure: (§1) Cells were synchronized at GUS boundary by a double thymidine block. Briefly, cells cultured in a medium containing 2 mM thymidine for 16 hr were released into a normal medium for 8 hr, subjected to a second thymidine block for 16 hr, and then released into a fresh medium again. Alternatively, cells were synchronized at prometaphase by a thymidine-nocodazole arrest (an 18-hr thymidine arrest and a 5-hr release, followed by a 5-hr 100 ng/mL nocodazole arrest).

QSG-7701 cells = assay: Western blot analysis of QSG-7701 normal liver cells; type: cell-based, human; details: 12 hr (FIG. 61)
PLK1 phosphorylation = assay: Western blot of PLK1 activation/phosphorylation in mitotic cells; type: cell-based, human
Procedure: as §1

[1] = target: T1, p-RXRα and PLK1 at the centrosome (Homo sapiens, UniProt P19793); assay: In situ proximity ligation assay (PLA) in HepG2 cells; type: cell-based; details: RO-3306 10 μM for 30 min or compound A1 10 μM for 2 hr (FIG. 56)
T1 construct: endogenous in cells; host or cells: HepG2
T1 sequence (P19793 1-462): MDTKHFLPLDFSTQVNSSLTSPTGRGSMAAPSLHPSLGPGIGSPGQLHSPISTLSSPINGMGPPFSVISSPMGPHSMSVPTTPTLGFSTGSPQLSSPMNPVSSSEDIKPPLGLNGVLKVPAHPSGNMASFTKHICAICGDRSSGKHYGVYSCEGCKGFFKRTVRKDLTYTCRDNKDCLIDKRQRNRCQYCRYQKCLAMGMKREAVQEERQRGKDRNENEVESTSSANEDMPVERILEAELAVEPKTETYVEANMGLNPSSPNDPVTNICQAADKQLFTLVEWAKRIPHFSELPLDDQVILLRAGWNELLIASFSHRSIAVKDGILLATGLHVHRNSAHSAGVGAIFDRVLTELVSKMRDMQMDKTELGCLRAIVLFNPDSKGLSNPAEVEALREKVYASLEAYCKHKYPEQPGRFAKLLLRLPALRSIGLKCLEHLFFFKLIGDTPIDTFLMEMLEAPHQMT
Procedure: An in situ proximity ligation assay (PLA) was performed in HeLa cells and HepG2 by using a DOULINK™ assay kit. Briefly, cells mounted on glass slides were fixed with methanol at −20° C. for 5 min, then permeabilized with 0.05% Triton X-100 in a PBS buffer for 8 min at 4° C., and blocked with a blocking solution for 60 min at 37° C., followed by incubation with primary antibodies for 60 min at 37° C. The slides were then washed three times with wash buffer A, and PLA labeled secondary antibodies (anti-mouse, minus; anti-rabbit, plus) were added and incubated for 60 min at 37° C. The slides were washed two times with wash buffer A and a ligation solution including a ligase was added for 30 min at 37° C. After ligation, the slides were washed two times with wash buffer A and followed by incubation with an amplification buffer including a polymerase for 100 min at 37° C. After amplification, the slides were washed two times with 1×wash buffer B and one time in 0.01×wash buffer B. Finally, the slides were mounted using a minimal volume of a mounting medium with DAPI and analyzed in a confocal microscope after 15 min.

[2] = system: centrosomal localization of pS56-RXRα or RXRα; assay: Immunostaining of centrosomal localization of pS56-RXRα or RXRα in metaphase HeLa cells; type: cell-based, human; details: metaphase HeLa cells (FIG. 33)
Procedure: Cells mounted on glass slides were fixed with methanol at −20° C. for 10 min, then permeabilized with 0.05% Triton X-100 in a PBS buffer for 8 min at 4° C., and blocked with 1% bovine serum in PBS for 30 min at room temperature, followed by incubation with primary antibodies at room temperature for 3 hr and detected by FITC-labeled anti-IgG (1:200), anti-goat IgG conjugated with Cy3 (1:200) at room temperature for 1 hr. The cells were costained with 40,6-diamidino-2-phenylindole (DAPI) (1:10,000 dilution) to visualize nuclei. The images were taken under a LEICA TCS SP8 confocal laser scanning microscope system or an LSM-510 confocal laser scanning microscope system.

[3] = target: T2, polo-like kinase 1 (PLK1), full-length (human, UniProt P53350 1-603); assay: CoIP in HeLa cells (FIG. 5)
T2 construct: Endogenous, FLAG-tagged and His-tagged forms are merged here; also called FLAG-PLK1; Flag-PLK1
T2 sequence (P53350 whole entry): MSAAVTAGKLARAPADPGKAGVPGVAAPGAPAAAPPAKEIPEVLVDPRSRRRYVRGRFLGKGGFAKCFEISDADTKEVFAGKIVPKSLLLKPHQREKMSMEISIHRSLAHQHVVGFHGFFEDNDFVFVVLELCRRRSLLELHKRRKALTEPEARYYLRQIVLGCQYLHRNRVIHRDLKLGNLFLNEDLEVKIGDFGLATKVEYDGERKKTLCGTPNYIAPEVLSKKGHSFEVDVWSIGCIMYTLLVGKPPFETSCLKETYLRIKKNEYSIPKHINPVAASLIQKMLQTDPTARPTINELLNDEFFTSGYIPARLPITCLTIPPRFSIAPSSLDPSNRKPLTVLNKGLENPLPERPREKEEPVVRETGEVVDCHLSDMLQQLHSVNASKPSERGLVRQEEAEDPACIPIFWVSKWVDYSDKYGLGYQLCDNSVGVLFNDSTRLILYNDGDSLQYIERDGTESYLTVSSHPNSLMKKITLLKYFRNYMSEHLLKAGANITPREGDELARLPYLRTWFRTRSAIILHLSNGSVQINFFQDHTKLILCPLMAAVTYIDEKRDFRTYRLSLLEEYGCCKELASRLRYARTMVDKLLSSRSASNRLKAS

[4] = target: T2, polo-like kinase 1 (PLK1), full-length; assay: CoIP in HeLa cells (FIG. 4)
[5] = target: T3, regular 55 kDa RXRα (unmodified form) (human, UniProt P19793 1-462); assay: co-immunoprecipitation from HeLa cells (IP: FLAG, WB: Myc)
T3 construct: Non-shifted band of RXRα; Endogenous and tagged (Myc, FLAG, GST) forms are merged; also called regular RXRα; GST-RXRα (not phosphorylated)
T3 sequence: T1 sequence (P19793 1-462)

[6] = target: T4, modified (phosphorylated) RXRα, mobility-shifted form (human, UniProt P19793 1-462, phosphoserine at 56 (as in SEQ ID NO: 1) and phosphoserine at 70 (MS/MS)); assay: CoIP of PLK1-KD or PLK1-PBD with RXRα in HeLa cells (FIG. 6)
T4 construct: Cdk1-phosphorylated form with reduced mobility on SDS-PAGE; Endogenous and Myc-, FLAG-, GST-tagged forms are merged; also called m-RXRα; p-RXRα
T4 sequence: T1 sequence (P19793 1-462)

[7] = target: T5, retinoic acid receptor-γ (RARγ) (UniProt P13631 1-454, limits assumed); assay: co-immunoprecipitation from HeLa cells (IP: FLAG, WB: Myc)
T5 construct: also called FLAG-RARγ
T5 sequence (looked up): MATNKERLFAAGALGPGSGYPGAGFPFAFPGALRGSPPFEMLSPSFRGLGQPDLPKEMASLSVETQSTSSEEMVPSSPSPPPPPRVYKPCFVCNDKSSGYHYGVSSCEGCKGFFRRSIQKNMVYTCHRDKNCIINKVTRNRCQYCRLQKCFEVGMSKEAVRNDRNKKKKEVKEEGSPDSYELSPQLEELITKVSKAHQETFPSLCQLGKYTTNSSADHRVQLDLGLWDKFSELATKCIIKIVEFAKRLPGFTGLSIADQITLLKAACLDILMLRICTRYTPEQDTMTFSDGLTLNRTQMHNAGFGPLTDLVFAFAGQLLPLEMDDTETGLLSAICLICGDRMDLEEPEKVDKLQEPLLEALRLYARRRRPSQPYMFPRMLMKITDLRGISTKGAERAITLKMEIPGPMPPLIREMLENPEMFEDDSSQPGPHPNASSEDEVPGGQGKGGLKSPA

[8] = target: T5, retinoic acid receptor-γ (RARγ); assay: CoIP in HeLa cells (FIG. 3)
[9] = target: T2, polo-like kinase 1 (PLK1), full-length; assay: CoIP in HeLa cells (FIG. 3)
[10] = target: T2, polo-like kinase 1 (PLK1), full-length; assay: CoIP of FLAG-PLK1 with Myc-RXRα mutants in HeLa cells (FIG. 27)

Molecule: CC[C@@H]1C(=O)N(C)c2cnc(Nc3ccc(C(=O)NC4CCN(C)CC4)cc3OC)nc2N1C1CCCC1 [BI2536]
inducing mitosis arrest (cancer cells): inducing mitosis arrest
mitotic progression of cancer cells (cancer cells): inhibited mitotic progression of cancer cells
RXRα shift (mobility shift on SDS-PAGE, WB) (RXRα shift): did not inhibit
effect in p-RXRα-negative noncancerous QSG-7701 cells (QSG-7701 cells): active even in QSG-7701 cells

in situ interaction between p-RXRα and PLK1 at the centrosome (PLA) [1]: inhibited the in situ interaction
Molecule: O=C1NC(=NCc2cccs2)S/C1=C\c1ccc2ncccc2c1 [RO-3306]
PLK1 activation / PLK1 phosphorylation (PLK1 phosphorylation): reduced PLK1 phosphorylation in a dose dependent manner
level of p-RXRα detected by the anti-pS56-RXRα antibody (RXRα shift; mitotic HeLa cells): reduced
RXRα shift (mobility shift on SDS-PAGE, WB) (RXRα shift): strongly inhibited RXRα shift in a dose dependent manner
centrosomal RXRα staining by the regular anti-RXRα antibody [2]: inhibited centrosomal RXRα staining
centrosomal staining by the anti-pS56-RXRα antibody [2]: eliminated centrosomal staining by the antibody

Molecule: Oc1c2ccccc2c2c3c(cccc13)N=N2 [SP600125]
RXRα shift (mobility shift on SDS-PAGE, WB) (RXRα shift): no effect

Molecule: Cc1cc(Nc2cc(N3CCN(C)CC3)nc(Sc3ccc(NC(=O)C4CC4)cc3)n2)n[nH]1 [VX680]
PLK1 activation / PLK1 phosphorylation (PLK1 phosphorylation): attenuated

Molecule: CN1CC[C@H](c2c(O)cc(O)c3c(=O)cc(-c4ccccc4Cl)oc23)[C@H](O)C1 [flavopiridol]
RXRα shift (mobility shift on SDS-PAGE, WB) (RXRα shift): strongly inhibited RXRα shift in a dose dependent manner

Molecule: CC(=O)c1c(C)c2cnc(Nc3ccc(N4CCNCC4)cn3)nc2n(C2CCCC2)c1=O [palbociclib]
RXRα shift (mobility shift on SDS-PAGE, WB) (RXRα shift): no effect

Molecule: CC1=CC(=O)C(C(C)C)=C/C1=N/OC(=O)c1ccccc1C [poloxin]
mitotic progression of cancer cells (cancer cells): inhibited mitotic progression of cancer cells

binding result [3]: no binding
B1: RXRα mutant lacking the N-terminal A/B domain (receptor)
chain: CAICGDRSSGKHYGVYSCEGCKGFFKRTVRKDLTYTCRDNKDCLIDKRQRNRCQYCRYQKCLAMGMKREAVQEERQRGKDRNENEVESTSSANEDMPVERILEAELAVEPKTETYVEANMGLNPSSPNDPVTNICQAADKQLFTLVEWAKRIPHFSELPLDDQVILLRAGWNELLIASFSHRSIAVKDGILLATGLHVHRNSAHSAGVGAIFDRVLTELVSKMRDMQMDKTELGCLRAIVLFNPDSKGLSNPAEVEALREKVYASLEAYCKHKYPEQPGRFAKLLLRLPALRSIGLKCLEHLFFFKLIGDTPIDTFLMEMLEAPHQMT
notes: also called RXRα-AA/B (so in the source)

binding result [4]: no binding
B2: RXRα-LBD (ligand-binding domain of RXRα) (receptor)
chain: TSSANEDMPVERILEAELAVEPKTETYVEANMGLNPSSPNDPVTNICQAADKQLFTLVEWAKRIPHFSELPLDDQVILLRAGWNELLIASFSHRSIAVKDGILLATGLHVHRNSAHSAGVGAIFDRVLTELVSKMRDMQMDKTELGCLRAIVLFNPDSKGLSNPAEVEALREKVYASLEAYCKHKYPEQPGRFAKLLLRLPALRSIGLKCLEHLFFFKLIGDTPIDTFLMEMLEAPHQMT
notes: also called LBD of RXRα

binding result [5]: no binding
binding result [6]: no binding
B3: PLK1-KD (N-terminal kinase domain of PLK1) (enzyme, UniProt P53350 1-326, looked up)
chain: MSAAVTAGKLARAPADPGKAGVPGVAAPGAPAAAPPAKEIPEVLVDPRSRRRYVRGRFLGKGGFAKCFEISDADTKEVFAGKIVPKSLLLKPHQREKMSMEISIHRSLAHQHVVGFHGFFEDNDFVFVVLELCRRRSLLELHKRRKALTEPEARYYLRQIVLGCQYLHRNRVIHRDLKLGNLFLNEDLEVKIGDFGLATKVEYDGERKKTLCGTPNYIAPEVLSKKGHSFEVDVWSIGCIMYTLLVGKPPFETSCLKETYLRIKKNEYSIPKHINPVAASLIQKMLQTDPTARPTINELLNDEFFTSGYIPARLPITCLTIPPRFS
notes: domain: kinase domain (KD)

binding result [7]: no binding
B4: RXRα-1-235, regular form (receptor)
chain: MDTKHFLPLDFSTQVNSSLTSPTGRGSMAAPSLHPSLGPGIGSPGQLHSPISTLSSPINGMGPPFSVISSPMGPHSMSVPTTPTLGFSTGSPQLSSPMNPVSSSEDIKPPLGLNGVLKVPAHPSGNMASFTKHICAICGDRSSGKHYGVYSCEGCKGFFKRTVRKDLTYTCRDNKDCLIDKRQRNRCQYCRYQKCLAMGMKREAVQEERQRGKDRNENEVESTSSANEDMPVERI

binding result [8]: no binding
binding result [9]: binds
B5: RXRα-1-235, modified form with mobility shift (receptor)
chain: B4 chain
modifications: phosphorylated (mobility-shifted); sites not stated for this construct
notes: A/B domain plus DBD

binding result [10]: no binding
B6: RXRα-S56A/S70A (RXRα-2A) (receptor)
chain: T1 sequence (P19793 1-462) with S56A, S70A
notes: Myc-tagged (CoIP) and GST-fused (kinase assay) forms are merged; also called RXR-S56A/S70A(2A); GST-RXRα-2A
